Assay results reported in patent publication US20220378907A1, “METHODS FOR TREATING DISEASES” (CHILDREN'S HOSPITAL MEDICAL CENTER, priority 2019, published 2022).

How the values were obtained:
Type in all cases: cell-based, mouse
[1] = system: pro-IL-1β in BMDCs; assay: Co-culture of BMDCs and effector CD4+ T cells, pro-IL-1β by immunoblot or flow cytometry; conditions: WT BMDCs + WT TH0 cells, CD3 Ab, IETD 10 μM, 18 h
Experimental: 1 million DCs were cultured with 4 million T cells in 12 well plate. DC-T cell interaction was triggered by adding either αCD3ε (αCD3, 200 ng mL^−1) or OVA323-339 as described in the legends. In experiments measuring secreted IL-1β, IL-1R antagonist (50 ng mL^−1) was added 1 hr prior to DC stimulation to block IL-1β consumption. Co-cultures were also pretreated with neutralizing antibodies and inhibitor wherever described. Co-culture experiments were performed in complete RPMI supplemented with 10% FCS. For Western blot analysis of the culture supernatant cells were cultured in 1% FCS containing complete RPMI.
Cells were lysed in 1× RIPA Buffer and protein was quantified using Pierce™ BCA Protein Assay Kit. Cell lysates where boiled in 1× Laemmli buffer at 95° C. for 10 mins. Cell lysates were separated by SDS-PAGE and transferred onto PVDF membranes. Blots were incubated with anti-IL1β [1:1000] (R&D AF-401-SP), anti-caspase8 [1:1000] […] Western blot was develop using SuperSignal™ West Pico PLUS Chemiluminescent Substrate (Thermo Fisher) and ECL signal was recorded on X-Ray Films using a developer (Kodak).
Cells were stained with relevant antibodies for 30 min on ice and washed. […] The stained cells were analyzed with BDLSRII or Novocyte (ACEA biosciences). For cytokine receptor staining, control refers to fluorescence minus one control. Data were analyzed with FlowJo 10 Software.

[2] = system: IL-1β production by BMDCs co-cultured with TH0 cells; assay: Co-culture of BMDCs and effector CD4+ T cells (CD3 Ab), secreted IL-1β by ELISA or immunoblot; conditions: WT BMDCs + WT TH0 cells, IETD 10 μM, 18 h
Experimental: Cell culture treated plates were coated with αCD3 (5 μg mL^−1) and αCD28 (5 μg mL^−1) for 3-4 h at 37° C. CD4^+CD62L^hi naïve CD4^+ T cells were isolated from splenocytes using a Mojosort naïve CD4 T cell isolation kit according to manufacturer's protocol. Purified naïve T cells were plated in antibody-coated plates with appropriate polarizing conditions for 5 days. T cell were cultured in complete RPMI supplemented with 10% FCS. Cytokine cocktails for in vitro polarization: Thl — IL-12 (10 ng mL^−1, peprotech), IL-2 (50 U mL^−1, peprotech), αIL-4 (10 μg mL^−1, Biolegend); Th17-IL-6 (20 ng mL^−1, peprotech), hTGFβ (5 ng mL^−1, peprotech), αIL-4 (10 μg mL^−1, Biolegend), αIFNγ (10 μg mL^−1, Biolegend), IL-23 (20 ng mL^−1, Biolegend) and IL-1β (20 ng mL^−1, peprotech), Th2− IL-4 (4 ng mL^−1, peprotech), IL-2 (50 U mL^−1, Biolegend), and αIFNγ (10 μg mL^−1, Biolegend), Th0− IL-2 (50 U mL^−1). For co-culture experiments T cells were rested in 10% RPMI supplemented with IL-2 (10 U mL^−1) for 36 hrs before co-culture.
Mouse progenitors were isolated from bone marrow (femurs and tibias). […]
Cells were lysed in 1× RIPA Buffer and protein was quantified using Pierce™ BCA Protein Assay Kit. […] Western blot was develop using SuperSignal™ West Pico PLUS Chemiluminescent Substrate (Thermo Fisher) and ECL signal was recorded on X-Ray Films using a developer (Kodak).

[3] = system: WT BMDCs; assay: Stimulation of WT BMDCs with recombinant TNF, intracellular pro-IL-1β by flow cytometry; conditions: recombinant TNFα 20 ng/mL, 6 h
Experimental: Mouse progenitors were isolated from bone marrow (femurs and tibias). Following RBC lysis, cells were plated at 0.75×10^6 mL^−1 in BMDC media (5% FCS containing complete RPMI+1% rGMCSF (Biolegend, 100 ng mL^−1). Media was replaced on day 2 and day 4 and cells were harvested for experiments on day 5 by gently flushing each well. For sorting of BMDC subpopulations, total BMDC cells were stained with fluorescent antibodies and FACS sorted as shown (FIG. 5g) For retroviral transduction, following RBC lysis cells were plated at 10×10^6 mL^−1 in 2 mL of retroviral supernatant containing […] polybrene. Cells were spinfected at 2500 rpm, 32° C., for 90 minutes, then 3 mL of BMDC media was added to each well and cells were incubated overnight. The next morning, ˜70% of the media was removed from the wells and spinfection was repeated with fresh retroviral supernatant. On day 5 cells were harvested for experiments.
Cells were stained with relevant antibodies for 30 min on ice and washed. For intracellular staining, Foxp3 staining buffer set (eBioscience; 00-5523-00) was used according to manufacturer's protocol. The stained cells were analyzed with BDLSRII or Novocyte (ACEA biosciences). For cytokine receptor staining, control refers to fluorescence minus one control. Data were analyzed with FlowJo 10 Software.

Molecule	production of pro-IL-1β in BMDCs (immunoblot, FIG. 4d) [1]	mature IL-1β (p17) in the supernatant (immunoblot, FIG. 4d) [2]	synthesis of pro-IL-1β in wild-type BMDCs (FIG. 2k) [3]
IETD	did not affect	loss of mature IL-1β	–
recombinant TNF: rTNFα (Peprotech; 315-01Am, 20 ng/mL) (protein) LRSSSQNSSDKPVAHVVANHQVEEQLEWLSQRANALLANGMDLKDNQLVVPADGLYLVYSQVLFKGQGCPDYVLLTHTVSRFAISYQEKVNLLSAVKSPCPKDTPEGAELKPWYEPIYLGGVFQLEKGDQLSAEVNLPKYLDFAESGQVYFGVIAL	–	–	drove the synthesis
